“And” between values parts separate entries of the source, which are not always exact repeats. Equal entries are not always repeated.
Test system: SHIV-SF162P3
Assay: Antiviral assay in rhesus PBMCs acutely infected with SHIV.SF162P3
Assay type: cell-based, rhesus macaque
Settings: for SHIV Replication (Mean): representative assay, N 3
Method: Freshly isolated PBMCs from 3 male Indian rhesus macaque (Macaca mulatta) donors were obtained from Human Cells Biosciences. Rhesus PBMCs were cultured in RPMI-1640 cell culture media (Life Technologies) supplemented with 10% heat-inactivated FBS (Hyclone), 2 mM glutamine, and 100 units/mL penicillin plus 100 μg/mL streptomycin (complete RPMI). Prior to their use in antiviral assays, PBMCs from 3 independent donors were pooled and activated at a density of 3 × 10^6 cells per mL for 72 hours at 37°C by addition of 1 μg/mL PHA (Sigma-Aldrich) and 50 units/mL recombinant human IL-2 (Roche Diagnostics).
Briefly, PHA/IL-2–stimulated rhesus PBMCs were infected in bulk culture with SHIV.SF162P3 at a concentration of 130 pg p27 equivalent per million PBMCs. Cells were maintained in suspension by gently rocking the cultures mixed with virus inoculum for 3 hours at 37°C. Cells were then pelleted by centrifugation at 500g for 5 minutes, washed twice with complete RPMI to remove any unadsorbed virus, and seeded into 96-well plates at a cell density of 2 × 10^5 cells per well in 100 μL. […] Cultures were incubated in a 5% CO2 incubator at 37°C for 7 days. The cell-free supernatants derived from the PBMC cultures were harvested 7 days after infection, and the amount of SHIV present was quantified using a SIV p27 antigen capture ELISA assay (item 5436, Advanced Bioscience Laboratories Inc.) performed according to the manufacturer’s protocol.

CC(C)(C#Cc1ccc(-c2ccc(Cl)c3c(NS(C)(=O)=O)nn(CC(F)(F)F)c23)c([C@H](Cc2cc(F)cc(F)c2)NC(=O)Cn2nc(C(F)(F)F)c3c2C(F)(F)[C@@H]2C[C@H]32)n1)S(C)(=O)=O [LEN, Lenacapavir]
SHIV Replication (Mean) (LEN 0.011 nM): 98
SHIV Replication (Mean) (LEN 0.034 nM): 91
SHIV Replication (Mean) (LEN 0.103 nM): 99
SHIV Replication (Mean) (LEN 0.309 nM): 60
SHIV Replication (Mean) (LEN 0.926 nM): 18
SHIV Replication (Mean) (LEN 2.778 nM): 1
SHIV Replication (Mean) (LEN 8.333 nM): 0
SHIV Replication (Mean) (LEN 25 nM): 0
EC50 (Macaca mulatta, PBMC, 168 h): 0.39 ± 0.16 nM
paEC95 (protein-adjusted EC95) (SHIV, rhesus PBMCs, EC95 x rhesus plasma shift): 8.80 nM and 8.8 nM and 8.80 ± 3.69^E nM
EC95 (SHIV-SF162P3, rhesus PBMCs, EC95 = EC50 x (95/5)^1/n): 0.91 nM and 0.91 ± 0.38 nM

From publication PMC10425210 (The Journal of Clinical Investigation, 2023)
